Reference: patent US10213418B2, “Therapeutic uses of berberine formulations” (TWi Biotechnology, Inc., priority 2013, dated 2019)
Where two headings read alike, the source gives them in different places. Blank lines part the entries; values can stand above or below the compound they belong to.

Experiments:
[1] = patients on therapy; cited from earlier work
[2] = Partition coefficient in an octanol-water system; type: physicochemical; settings: berberine alone
Solubility = type: physicochemical

Compound: Nc1cc(C(F)(F)F)c(-c2cc(N3CCOCC3)nc(N3CCOCC3)n2)cn1 [BKM-120]
maculopapular rash described [1]: 37 % of patients

Compound: NC1(c2ccc(-c3nc4ccn5c(=O)[nH]nc5c4cc3-c3ccccc3)cc2)CCC1 [MK2206]
maculopapular rash described [1]: 52 % of patients

Compound: CN(C)C/C=C/C(=O)Nc1cc2c(Nc3ccc(F)c(Cl)c3)ncnc2cc1O[C@H]1CCOC1 [afatinib]
papulopustular rash reported [1]: 90 % of patients

logP [2]: 0.0294
solubility (Solubility; aqueous berberine solubility): 1570 µg/mL
solubility (Solubility; medium containing SDS (sodium dodecyl sulfate), aqueous with cosolvent or surfactant or cyclodextrin, pH of between 4 and 7, read-out: berberine solubility in the presence of SDS): 10 to 60 µg/mL
solubility (Solubility; water, aqueous berberine solubility, read-out: solubility): 1570 µg/mL
Compound: COc1ccc2cc3[n+](cc2c1OC)CCc1cc2c(cc1-3)OCO2 [berberine, 5,6-dihydro-9,10-dimethoxybenzo(g)-1,3-benzodioxolo (5,6-a) quinolizinium]

Compound: Cn1cnc2c(F)c(Nc3ccc(Br)cc3Cl)c(C(=O)NOCCO)cc21 [selumetinib]
papulopustular rash reported [1]: 93 % of patients

Compound: ipilimumab: anti-CTLA-4 inhibitor
maculopapular rash described [1]: 33 % of patients

Compound: nivolumab: anti-PD-1 inhibitor
maculopapular rash described [1]: 26 % of patients
